Legend:
NLRP3 [1] = target: T1, NLRP3 (Homo sapiens, UniProt Q96P20); assay: THP-1 cell-based NLRP3 activation assay; parameters: endogenous in cells; host or cells: THP-1 cells (PMA-differentiated, LPS-primed, nigericin-stimulated); conditions: PMA-differentiated THP-1 cells, LPS 100 ng/mL then 10 μM nigericin
Summary of the method: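 THP-1 cells were PMA-differentiated (20 nM, 24 h or 500 nM, 3 h), primed with 100 ng/mL LPS for 3 h, then given compound in Opti-Mem for 30 min before 10 μM nigericin for 1 h. Supernatants assayed; viability of adherent cells by CellTiter-Glo.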
Target sequence in this assay (Q96P20 whole entry): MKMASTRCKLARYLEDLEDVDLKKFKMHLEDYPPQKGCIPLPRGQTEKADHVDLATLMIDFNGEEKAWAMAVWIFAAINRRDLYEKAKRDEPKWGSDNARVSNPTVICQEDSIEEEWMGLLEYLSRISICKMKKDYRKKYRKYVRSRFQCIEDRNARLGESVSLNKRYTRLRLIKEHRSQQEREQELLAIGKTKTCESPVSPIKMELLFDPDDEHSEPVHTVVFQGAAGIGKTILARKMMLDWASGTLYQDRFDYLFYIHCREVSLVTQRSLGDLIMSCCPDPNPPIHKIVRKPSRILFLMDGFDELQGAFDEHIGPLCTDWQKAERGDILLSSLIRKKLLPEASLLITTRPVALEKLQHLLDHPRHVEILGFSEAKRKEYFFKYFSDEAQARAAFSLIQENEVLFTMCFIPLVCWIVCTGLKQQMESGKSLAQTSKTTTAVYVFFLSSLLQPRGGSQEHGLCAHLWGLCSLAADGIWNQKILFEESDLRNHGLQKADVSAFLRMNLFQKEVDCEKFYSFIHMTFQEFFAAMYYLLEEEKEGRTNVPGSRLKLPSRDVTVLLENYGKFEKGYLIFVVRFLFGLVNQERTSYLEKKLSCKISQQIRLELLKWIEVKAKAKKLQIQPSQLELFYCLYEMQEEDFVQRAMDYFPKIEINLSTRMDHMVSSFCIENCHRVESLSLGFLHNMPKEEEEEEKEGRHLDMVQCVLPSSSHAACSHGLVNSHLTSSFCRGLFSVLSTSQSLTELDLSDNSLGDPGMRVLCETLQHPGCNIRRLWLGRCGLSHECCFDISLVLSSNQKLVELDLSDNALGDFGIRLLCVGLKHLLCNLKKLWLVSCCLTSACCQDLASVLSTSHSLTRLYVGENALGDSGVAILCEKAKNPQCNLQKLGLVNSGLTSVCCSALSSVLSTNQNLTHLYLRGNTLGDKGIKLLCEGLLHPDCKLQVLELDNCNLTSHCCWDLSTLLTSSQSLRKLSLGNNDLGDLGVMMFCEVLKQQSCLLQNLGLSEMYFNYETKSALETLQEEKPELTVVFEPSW

NLRP3 [2] = target: T1, NLRP3; assay: Cryo-EM NLRP3 epitope determination; format: binding; parameters: made in house; host or cells: Sf9 insect cells (baculovirus); conditions: cryo-EM of NLRP3·Compound 007 complex, 3.00 Å resolution, FIG. 1
Text: Compound 007 of the disclosure was used as an exemplary compound for determining the epitope to NLRP3, using cryogenic electron microscopy (cryo-EM).
Full length, human NLRP3 (3-1036, UniProt accession code Q96P20), codon-optimized for Spodoptera frugiperda, was cloned in an in-house modified pACE-Bac1 vector containing an N-terminal MBP-tag, followed by a Tobacco etch virus (TEV) protease cleavage site. For recombinant protein expression of MBP-NLRP3, 1 L of Sf9 insect cells were infected with 3% v/v viral stock of the second virus passage. The expression culture was incubated for 72 h at 27° C. and 80 rpm, and was subsequently harvested by centrifugation at 2000 rpm for 20 min. […] Elution fractions were analyzed by SDS-PAGE and negative stain electron microscopy (EM), before they were plunge frozen for cryo-EM analysis.
The purified NLRP3·Compound 007 complex was applied onto glow-discharged EM-grids (Quantifoil Cu300 R2/1+2 nm carbon support film), incubated for 30s at 100% humidity and 4° C., before it was blotted for 5s with blot force 5 and plunge frozen into liquid ethane using a Vitrobot mark IV plunge freezing device (Thermo Fisher Scientific). […] Using the blob picker, 3,114,152 particles were picked and detected of which 2,058,399 were extracted (search particle diameter […], 588 box size), of which 559,748 particles remained after multiple rounds of 2D classification. […]
Target sequence in this assay (Q96P20 3-1036): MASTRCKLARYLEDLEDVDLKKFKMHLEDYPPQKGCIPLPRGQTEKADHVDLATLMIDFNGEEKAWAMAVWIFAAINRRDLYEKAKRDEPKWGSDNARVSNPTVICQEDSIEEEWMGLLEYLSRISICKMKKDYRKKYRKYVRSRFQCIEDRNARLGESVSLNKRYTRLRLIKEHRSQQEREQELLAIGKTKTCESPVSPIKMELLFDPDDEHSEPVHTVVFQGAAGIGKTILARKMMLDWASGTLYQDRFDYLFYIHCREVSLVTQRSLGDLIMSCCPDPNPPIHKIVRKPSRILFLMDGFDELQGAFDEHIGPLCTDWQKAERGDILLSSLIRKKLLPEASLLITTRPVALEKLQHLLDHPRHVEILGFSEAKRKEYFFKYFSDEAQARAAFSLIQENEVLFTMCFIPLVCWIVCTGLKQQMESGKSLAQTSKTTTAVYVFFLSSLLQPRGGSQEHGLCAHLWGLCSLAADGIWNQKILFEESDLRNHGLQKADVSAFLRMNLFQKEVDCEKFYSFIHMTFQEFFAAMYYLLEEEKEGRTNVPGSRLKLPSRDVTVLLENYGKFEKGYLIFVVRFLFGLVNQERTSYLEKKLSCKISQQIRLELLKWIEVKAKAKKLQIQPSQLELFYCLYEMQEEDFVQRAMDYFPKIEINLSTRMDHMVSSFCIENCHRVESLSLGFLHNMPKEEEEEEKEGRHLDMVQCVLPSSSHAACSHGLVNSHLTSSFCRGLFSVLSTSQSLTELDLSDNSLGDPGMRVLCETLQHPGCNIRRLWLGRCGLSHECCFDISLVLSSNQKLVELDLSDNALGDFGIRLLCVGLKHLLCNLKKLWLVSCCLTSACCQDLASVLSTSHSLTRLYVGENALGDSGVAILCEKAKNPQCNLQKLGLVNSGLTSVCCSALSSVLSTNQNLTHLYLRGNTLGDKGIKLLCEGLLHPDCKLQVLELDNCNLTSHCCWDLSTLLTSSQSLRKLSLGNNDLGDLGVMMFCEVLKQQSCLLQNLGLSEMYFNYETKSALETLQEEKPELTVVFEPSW

DIO mice = assay: Diet-induced obesity (DIO) mouse model; format: in vivo; conditions: for Day 28 BW % change vs. DIO/VEH / Day 28 BW % change vs. baseline: po
foot gout mouse model = assay: Foot gout mouse model; format: in vivo
[3] = DIO mice, 5 to 100/75 mpk QD PO, FIG. 10
[4] = DIO mice, 100/75 mpk, qd (75 mpk since day 9)
[5] = DIO mice, doses of 50 mpk or higher, FIG. 11
[6] = DIO mice, doses of 50 mpk or higher, treatment for 4 weeks, FIG. 13
[7] = summary, comparable to the effect of Semaglutide

SMILES: CCOc1cc(C(=O)N(C)[C@H](CCO)c2cncc3cn[nH]c23)ccc1-c1cccc(F)c1 [Compound 007]
- IC50 (NLRP3 [1]): < 100 nM
- binding site on NLRP3 (NLRP3 [2]): binds in a pocket on the surface of the NACHT domain of NLRP3

SMILES: CCOc1cc(C(=O)N(C)[C@H](CCN(C)C)c2cncc3cn[nH]c23)ccc1-c1cccc(F)c1 [Compound 040]
- body weight of DIO mice (DIO mice; 5 to 100/75 mpk QD PO, FIG. 8): dose-dependent effect on reducing body weight
- Day 28 BW % change vs. DIO/VEH (DIO mice; DIO mice, 5 mpk, qd): 0.6%
- Day 28 BW % change vs. baseline (DIO mice; DIO mice, 5 mpk, qd): 4.6%
- food consumption (DIO mice; DIO mice, 5 to 100/75 mpk QD PO, FIG. 9): dose-dependent effect on reducing food consumption
- fat mass to body weight percentage (DIO mice; [3]): dose-dependent effect on reducing fat mass to body weight percentage
- lean mass to body weight percentage (DIO mice; [3]): maintaining lean mass to body weight percentage
- Day 28 BW % change vs. DIO/VEH (DIO mice; DIO mice, 20 mpk, qd): −2.7%
- Day 28 BW % change vs. baseline (DIO mice; DIO mice, 20 mpk, qd): 1.3%
- Day 28 BW % change vs. DIO/VEH (DIO mice; DIO mice, 50 mpk, qd): −11.6%
- Day 28 BW % change vs. baseline (DIO mice; DIO mice, 50 mpk, qd): −7.6%
- Day 28 BW % change vs. DIO/VEH (DIO mice; [4]): −22.0%
- Day 28 BW % change vs. baseline (DIO mice; [4]): −17.9%
- inguinal fat to body weight percentage or muscle tissues to body weight percentage (DIO mice; DIO mice, compared with Semaglutide treated mice, FIG. 13): no significant difference from Semaglutide treated mice
- fasting glucose (DIO mice; [5]): significantly reduced fasting glucose
- insulin sensitivity (DIO mice; [5]): improved insulin sensitivity
- inguinal fat weight (DIO mice; [6]): significantly reduced
- liver weight (DIO mice; [6]): significantly reduced
- body weight of high fat DIO mice (DIO mice; [7]): significantly reduced
- food consumption of high fat DIO mice (DIO mice; [7]): significantly reduced
- IC50 (NLRP3 [1]): < 100 nM
- treatment mode in foot gout model (foot gout mouse model): can be used as both a preventative and therapeutic treatment
- swelling (foot gout mouse model; FIG. 16 and FIG. 17): reduce swelling in a foot gout mouse model in a dose dependent manner

Source: patent publication US12509459B2, “Inhibitors of NLRP3 inflammasome” (BioAge Labs, Inc., priority 2024, dated 2025)
